Counter-ions that a name gives are not always drawn. Like-named read-outs stand apart in the source and are kept apart here.
Legend:
[1] = system: Serratia marcescens expressing IMP-1 (CL5741); assay: Antibiotic potentiation activity: synergistic concentration (MITC95) with imipenem, OD600 growth; format: cell-based; conditions: for Serratia marcescens expressing IMP-1 (CL5741) MITC95: concentration giving 95% inhibition of bacterial growth; for Serratia marcescens MITC95: Serratia marcescens expressing IMP-1 (CL5741), 95% growth inhibition
Procedure, shortened: (§1)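 Imipenem (4 μg/ml final; 1 μg/ml as an option) was combined with compound against isolates diluted 1:100 from saline suspensions into 1.1× CAMHB. Growth was assessed by absorbance at 22–24 h, 35 °C.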

[2] = system: Escherichia coli expressing NDM-1 (CLB30005); assay: as above; format: cell-based; conditions: for Escherichia coli expressing NDM-1 (CLB 30005) MITC95: concentration giving 95% inhibition of bacterial growth; for Escherichia coli MITC95: Escherichia coli expressing NDM-1 (CLB30005), 95% growth inhibition
Procedure, shortened: as §1

[3] = system: Klebsiella pneumoniae expressing VIM-1 (IHMA599644); assay: as above; format: cell-based; conditions: for Klebsiella pneumoniae expressing VIM-1 (IHMA 599644) MITC95: concentration giving 95% inhibition of bacterial growth; for Klebsiella pneumoniae MITC95: Klebsiella pneumoniae expressing VIM-1 (IHMA599644), 95% growth inhibition
Procedure, shortened: as §1

[4] = system: Escherichia coli expressing NDM-1 (CLB30016); assay: as above; format: cell-based; conditions: for Escherichia coli expressing NDM-1 (CLB 30016) MITC95: concentration giving 95% inhibition of bacterial growth; for Escherichia coli MITC95: Escherichia coli expressing NDM-1 (CLB30016), 95% growth inhibition
Procedure, shortened: as §1

NDM-1 = NDM-1 (Klebsiella pneumoniae, UniProt C7C422); assay: biochemical; format: biochemical; conditions: read-out: NDM-1 IC50
NDM-1, sequence (C7C422 whole entry, looked up, species assumed): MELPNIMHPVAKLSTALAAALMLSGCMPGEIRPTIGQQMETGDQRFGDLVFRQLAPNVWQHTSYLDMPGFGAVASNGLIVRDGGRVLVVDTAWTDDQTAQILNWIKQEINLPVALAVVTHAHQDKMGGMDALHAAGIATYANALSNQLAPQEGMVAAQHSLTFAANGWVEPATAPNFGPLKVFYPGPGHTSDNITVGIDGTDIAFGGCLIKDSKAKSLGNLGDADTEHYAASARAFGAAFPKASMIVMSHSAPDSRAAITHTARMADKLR

VIM-1 = VIM-1 (Pseudomonas aeruginosa (strain ATCC 15692 / DSM 22644 / CIP 104116 / JCM 14847 / LMG 12228 / 1C / PRS 101 / PAO1), UniProt A0A0F7KYQ8); assay: Enzyme activity: determination of IC50, fluorescence assay with CCF2-FA substrate (VIM-1); format: biochemical
IMP-1 = IMP-1 (Serratia marcescens, UniProt P52699); assay: biochemical; format: biochemical; conditions: read-out: IMP-1 IC50
IMP-1, sequence (P52699 whole entry, looked up): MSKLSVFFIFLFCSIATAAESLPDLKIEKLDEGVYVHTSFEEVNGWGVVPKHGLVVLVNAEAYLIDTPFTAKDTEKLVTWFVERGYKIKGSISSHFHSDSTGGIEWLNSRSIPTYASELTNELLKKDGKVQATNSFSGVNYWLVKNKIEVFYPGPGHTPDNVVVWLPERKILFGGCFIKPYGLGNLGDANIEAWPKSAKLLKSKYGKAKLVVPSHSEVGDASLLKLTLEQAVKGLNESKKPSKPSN

[5] = fluorescence assay with CCF2-FA substrate
[6] = fluorescence assay with CCF2-FA substrate, read-out: VIM-1 IC50
[7] = VIM-1 IC50, fluorescence assay with CCF2-FA substrate
[8] = NDM-1 enzyme, CCF2-FA fluorescence assay
[9] = VIM-1 enzyme, CCF2-FA fluorescence assay, read-out: VIM-1 IC50
[10] = IMP-1 enzyme, CCF2-FA fluorescence assay

SMILES | Serratia marcescens expressing IMP-1 (CL5741) MITC95 [1] | Escherichia coli expressing NDM-1 (CLB 30005) MITC95 [2] | Klebsiella pneumoniae expressing VIM-1 (IHMA 599644) MITC95 [3] | Escherichia coli expressing NDM-1 (CLB 30016) MITC95 [4] | IC50 (NDM-1; [5]) | IC50 (VIM-1; [6]) | IC50 (IMP-1; [5]) | IC50 (VIM-1; [7]) | Serratia marcescens MITC95 [1] | Escherichia coli MITC95 [2] | Klebsiella pneumoniae MITC95 [3] | Escherichia coli MITC95 [4] | IC50 (NDM-1; [8]) | IC50 (VIM-1; [9]) | IC50 (IMP-1; [10]) | IC50 (VIM-1; VIM-1 IC50, VIM-1 enzyme, CCF2-FA fluorescence assay)
Cc1ccc(-c2cccc(S(N)(=O)=O)c2-c2nnn[nH]2)cc1 [Example 1, 4′-Methyl-2-(1H-tetrazol-5-yl)-[1,1′-biphenyl]-3-sulfonamide] | 11.96 µM | 1.489 µM | 123.3 µM | 0.7595 µM | 0.00377 µM | 0.0576 µM | 0.0648 µM | – | – | – | – | – | – | – | – | –
CN(C)CCCOc1ccc(-c2cccc(S(N)(=O)=O)c2-c2nn[nH]n2)cn1 [Example 30, 3-(6-(3-(dimethylamino)propoxy)pyridin-3-yl)-2-(2H-tetrazol-5-yl)benzenesulfonamide] | 50 µM | 3.125 µM | 200 µM | 1.563 µM | 0.132 µM | – | 1.67 µM | 0.875 µM | – | – | – | – | – | – | – | –
NS(=O)(=O)c1cccc(-c2cncnc2)c1-c1nn[nH]n1 [Example 42, 3-pyrimidin-5-yl-2-(2H-tetrazol-5-yl)benzenesulfonamide] | 200 µM | 1.563 µM | >200 µM | 0.7813 µM | 0.543 µM | 9.96 µM | 10.5 µM | – | – | – | – | – | – | – | – | –
CS(=O)(=O)Nc1ccc(-c2cccc(S(N)(=O)=O)c2-c2nn[nH]n2)cc1 [Example 82, 4′-[(methylsulfonyl)amino]-2-(2H-tetrazol-5-yl)biphenyl-3-sulfonamide] | 3.125 µM | 1.953 µM | 12.5 µM | 0.5859 µM | 0.00143 µM | – | 0.0222 µM | 0.00779 µM | – | – | – | – | – | – | – | –
NS(=O)(=O)c1cccc(-c2cnn3ccccc23)c1-c1nn[nH]n1 [Example 98, 3-pyrazolo[1,5-a]pyridin-3-yl-2-(2H-tetrazol-5-yl)benzenesulfonamide] | 7.813 µM | 0.9766 µM | 18.75 µM | 0.7813 µM | 0.0027 µM | – | 0.32 µM | 0.0294 µM | – | – | – | – | – | – | – | –
NS(=O)(=O)c1cccc(-c2ccc(C3CCNC3)cc2)c1-c1nnn[nH]1 (centres unmarked) [Example 180, 4′-(pyrrolidin-3-yl)-2-(1H-tetrazol-5-yl)-[1,1′-biphenyl]-3-sulfonamide] | 3.125 µM | 0.3906 µM | 4.688 µM | 0.5 µM | 0.00991 µM | 0.0224 µM | 0.113 µM | – | – | – | – | – | – | – | – | –
NS(=O)(=O)c1nccc(-c2ccc(CO)cc2)c1-c1nnn[nH]1 [Example 181, 4-(4-(Hydroxymethyl)phenyl)-3-(1H-tetrazol-5-yl)pyridine-2-sulfonamide] | 12.5 µM | 1.953 µM | 18.75 µM | 0.6727 µM | 0.0279 µM | 0.184 µM | 0.375 µM | – | – | – | – | – | – | – | – | –
CS(=O)(=O)Nc1ccc(-c2ccnc(S(N)(=O)=O)c2-c2nn[nH]n2)cc1 [Example 206, 4-(4-(methylsulfonamido)phenyl)-3-(2H-tetrazol-5-yl)pyridine-2-sulfonamide] | 4.125 µM | 0.1953 µM | 3.125 µM | 0.375 µM | 0.0114 µM | 0.0142 µM | 0.0915 µM | – | – | – | – | – | – | – | – | –
NS(=O)(=O)c1nccc(-c2ccccc2)c1-c1nn[nH]n1 [Example 207, 4-phenyl-3-(2H-tetrazol-5-yl)pyridine-2-sulfonamide] | – | 0.1953 µM | – | 0.5 µM | 0.0351 µM | 0.201 µM | 0.373 µM | – | – | – | – | – | – | – | – | –
CC(=O)Nc1ccc(-c2ccnc(S(N)(=O)=O)c2-c2nn[nH]n2)cc1 [Example 214, N-(4-(2-sulfamoyl-3-(2H-tetrazol-5-yl)pyridin-4-yl)phenyl)acetamide] | 3.344 µM | 0.1953 µM | 37.5 µM | 0.375 µM | 0.0132 µM | 0.129 µM | 0.0984 µM | – | – | – | – | – | – | – | – | –
Nc1ccc(-c2ccnc(S(N)(=O)=O)c2-c2nn[nH]n2)cn1 [Example 215, 6-amino-3′-(2H-tetrazol-5-yl)-[3,4′-bipyridine]-2′-sulfonamide] | 18.75 µM | 0.1953 µM | 12.5 µM | 0.25 µM | 0.0909 µM | 0.494 µM | 1.86 µM | – | – | – | – | – | – | – | – | –
Nc1ccc(-c2cccc(S(N)(=O)=O)c2-c2nnn[nH]2)cn1 [Example 298, 3-(6-Aminopyridin-3-yl)-2-(1H-tetrazol-5-yl)benzene sulfonamide, TFA salt] | – | – | – | – | – | – | – | – | 8.333 µM | 0.1953 µM | 12.5 µM | 0.04688 µM | 0.0717 µM | 0.251 µM | 0.776 µM | –
NS(=O)(=O)c1cccc(-c2cnc3cc[nH]c3c2)c1-c1nn[nH]n1 [Example 310, 3-(1H-pyrrolo[3,2-b]pyridin-6-yl)-2-(2H-tetrazol-5-yl)benzenesulfonamide] | – | – | – | – | – | – | – | – | 9.375 µM | 0.1953 µM | 4.167 µM | 0.02344 µM | 0.000994 µM | 0.046 µM | 0.42 µM | –
NS(=O)(=O)c1cccc(-c2cnc3ccoc3c2)c1-c1nn[nH]n1 [Example 311, 3-(furo[3,2-b]pyridin-6-yl)-2-(2H-tetrazol-5-yl)benzenesulfonamide] | – | – | – | – | – | – | – | – | 3.906 µM | 0.1953 µM | 4.688 µM | 0.7813 µM | 0.00111 µM | 0.00816 µM | 0.129 µM | –
NS(=O)(=O)c1cccc(-c2cnc3[nH]ccc3c2)c1-c1nn[nH]n1 [Example 312, 3-(1H-pyrrolo[2,3-b]pyridin-5-yl)-2-(2H-tetrazol-5-yl)benzenesulfonamide] | – | – | – | – | – | – | – | – | 5.469 µM | 0.3906 µM | 3.125 µM | 0.5859 µM | 0.00095 µM | 0.00649 µM | 0.107 µM | –
NS(=O)(=O)c1cccc(-c2ccc3[nH]ncc3c2)c1-c1nn[nH]n1 [Example 313, 3-(1H-indazol-5-yl)-2-(2H-tetrazol-5-yl)benzenesulfonamide] | – | – | – | – | – | – | – | – | 3.906 µM | 0.4635 µM | 7.031 µM | 0.5859 µM | 0.00077 µM | 0.0134 µM | 0.0669 µM | –
Cc1ccncc1-c1cccc(S(N)(=O)=O)c1-c1nn[nH]n1 [Example 317, 3-(4-methylpyridin-3-yl)-2-(2H-tetrazol-5-yl)benzenesulfonamide] | – | – | – | – | – | – | – | – | 9.375 µM | 0.125 µM | 18.75 µM | 0.1875 µM | 0.00538 µM | – | 0.36 µM | 0.046 µM
NS(=O)(=O)c1cccc(-c2ccc3nccn3c2)c1-c1nn[nH]n1 [Example 318, 3-(imidazo[1,2-a]pyridin-6-yl)-2-(2H-tetrazol-5-yl)benzenesulfonamide] | – | – | – | – | – | – | – | – | 6.25 µM | 0.1953 µM | 4.688 µM | 0.0625 µM | 0.00213 µM | 0.0246 µM | 0.295 µM | –
NS(=O)(=O)c1cccc(-c2ccnc3ccccc23)c1-c1nn[nH]n1 [Example 319, 3-(quinolin-4-yl)-2-(2H-tetrazol-5-yl)benzenesulfonamide] | – | – | – | – | – | – | – | – | 3.906 µM | 0.3906 µM | 3.906 µM | 3.906 µM | 0.000551 µM | 0.000886 µM | 0.0622 µM | –
